From US20200239530A1, “COMPOUNDS AND METHODS OF MODULATING PROTEIN DEGRADATION” (Vividion Therapeutics, Inc., priority 2017, published 2020)
Like-named read-outs stand apart in the source and are kept apart here.

Experiments:
Test in all cases: Cysteine liganding, probe competition
Assay type in all cases: binding
[1] = biological target: T1, UniProt O14544 (Homo sapiens, UniProt O14544); conditions: for inhibition at 100 µM: read-out: percent_inhibition
T1 construct: 200 μL of lysate containing 5 mg/ml proteome was treated with 2 μL of 100× compound stock; endogenous in cells
T1 sequence (O14544 1-535): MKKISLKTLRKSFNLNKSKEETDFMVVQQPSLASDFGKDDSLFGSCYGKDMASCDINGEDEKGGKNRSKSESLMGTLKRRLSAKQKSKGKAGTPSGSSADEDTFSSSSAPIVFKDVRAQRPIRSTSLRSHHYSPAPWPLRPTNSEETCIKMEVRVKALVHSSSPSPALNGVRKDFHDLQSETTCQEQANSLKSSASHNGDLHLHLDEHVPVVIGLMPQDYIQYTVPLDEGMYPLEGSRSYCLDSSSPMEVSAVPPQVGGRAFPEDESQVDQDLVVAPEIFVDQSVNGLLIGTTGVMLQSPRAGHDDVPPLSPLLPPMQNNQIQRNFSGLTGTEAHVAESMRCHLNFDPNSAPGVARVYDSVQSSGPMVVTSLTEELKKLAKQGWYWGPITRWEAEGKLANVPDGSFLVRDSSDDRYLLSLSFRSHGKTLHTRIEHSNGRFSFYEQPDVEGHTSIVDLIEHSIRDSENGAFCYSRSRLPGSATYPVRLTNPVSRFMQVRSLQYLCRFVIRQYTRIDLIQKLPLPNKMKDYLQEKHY
Source text: (§1) The following 96-well sample prep protocol was used for sample preparation.

[2] = biological target: T2, UniProt O15524 (Homo sapiens, UniProt O15524); conditions: for inhibition at 500 µM: read-out: percent_inhibition
T2 construct: 200 μL of lysate containing 5 mg/ml proteome was treated with 2 μL of 100× compound stock; endogenous in cells
T2 sequence (O15524 1-211): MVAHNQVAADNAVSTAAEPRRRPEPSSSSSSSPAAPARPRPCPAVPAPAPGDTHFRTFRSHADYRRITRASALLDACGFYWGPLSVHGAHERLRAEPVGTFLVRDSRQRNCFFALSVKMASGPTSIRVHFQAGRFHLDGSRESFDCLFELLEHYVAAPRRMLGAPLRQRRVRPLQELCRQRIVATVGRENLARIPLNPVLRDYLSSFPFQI
Source text: as §1

[3] = biological target: T3, UniProt Q13064 (Homo sapiens, UniProt Q13064)
T3 construct: Cells were resuspended in cold PBS on ice and sonicated with a probe sonicator to achieve lysis; endogenous in cells
T3 sequence (Q13064 1-507): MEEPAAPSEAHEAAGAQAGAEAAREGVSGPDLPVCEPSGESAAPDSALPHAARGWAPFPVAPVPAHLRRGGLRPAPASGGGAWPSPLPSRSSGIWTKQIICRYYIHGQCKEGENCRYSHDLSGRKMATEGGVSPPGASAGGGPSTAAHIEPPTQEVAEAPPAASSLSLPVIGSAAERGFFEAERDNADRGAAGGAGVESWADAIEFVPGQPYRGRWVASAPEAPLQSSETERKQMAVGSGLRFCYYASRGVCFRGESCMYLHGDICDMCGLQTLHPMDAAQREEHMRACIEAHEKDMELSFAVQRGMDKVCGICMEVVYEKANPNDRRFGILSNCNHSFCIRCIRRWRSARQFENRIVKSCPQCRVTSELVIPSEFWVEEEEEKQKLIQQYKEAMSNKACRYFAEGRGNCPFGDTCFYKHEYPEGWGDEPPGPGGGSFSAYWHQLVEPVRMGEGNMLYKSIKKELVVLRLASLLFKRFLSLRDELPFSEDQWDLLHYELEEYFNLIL
Source text: as §1

[4] = biological target: T4, UniProt Q3KNV8 (Homo sapiens, UniProt Q3KNV8)
T4 construct: Cells were resuspended in cold PBS on ice and sonicated with a probe sonicator to achieve lysis; endogenous in cells
T4 sequence (Q3KNV8 1-242): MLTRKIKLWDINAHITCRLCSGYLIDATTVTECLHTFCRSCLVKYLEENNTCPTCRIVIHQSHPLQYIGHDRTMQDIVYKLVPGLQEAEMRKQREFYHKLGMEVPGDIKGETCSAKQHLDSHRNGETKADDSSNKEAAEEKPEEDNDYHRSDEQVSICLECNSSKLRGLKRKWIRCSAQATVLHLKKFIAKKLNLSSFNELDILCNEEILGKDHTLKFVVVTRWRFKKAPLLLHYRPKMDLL
Source text: as §1

[5] = biological target: T5, UniProt Q6PJ21 (Homo sapiens, UniProt Q6PJ21); conditions: for inhibition at 100 µM / inhibition at 500 µM: read-out: percent_inhibition
T5 construct: 200 μL of lysate containing 5 mg/ml proteome was treated with 2 μL of 100× compound stock; endogenous in cells
T5 sequence (Q6PJ21 1-355): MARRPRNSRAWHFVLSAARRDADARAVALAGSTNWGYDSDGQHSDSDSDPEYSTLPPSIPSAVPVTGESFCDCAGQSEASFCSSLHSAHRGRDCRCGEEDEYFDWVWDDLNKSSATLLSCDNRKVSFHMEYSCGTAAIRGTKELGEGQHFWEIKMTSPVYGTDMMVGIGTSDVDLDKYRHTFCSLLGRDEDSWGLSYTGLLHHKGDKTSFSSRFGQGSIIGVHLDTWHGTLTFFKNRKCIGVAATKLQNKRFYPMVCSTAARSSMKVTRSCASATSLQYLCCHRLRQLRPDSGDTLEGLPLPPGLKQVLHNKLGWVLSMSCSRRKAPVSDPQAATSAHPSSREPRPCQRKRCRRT
Source text: as §1

[6] = biological target: T6, UniProt Q96G25 (Homo sapiens, UniProt Q96G25)
T6 construct: Cells were resuspended in cold PBS on ice and sonicated with a probe sonicator to achieve lysis; endogenous in cells
T6 sequence (Q96G25 1-268): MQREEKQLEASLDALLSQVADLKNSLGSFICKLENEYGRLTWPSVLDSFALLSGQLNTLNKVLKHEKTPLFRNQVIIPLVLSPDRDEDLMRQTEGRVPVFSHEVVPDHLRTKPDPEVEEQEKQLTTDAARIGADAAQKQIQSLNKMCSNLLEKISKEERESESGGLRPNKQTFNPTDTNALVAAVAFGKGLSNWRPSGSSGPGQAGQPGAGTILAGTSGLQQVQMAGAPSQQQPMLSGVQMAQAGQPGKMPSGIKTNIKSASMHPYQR
Source text: as §1

[7] = biological target: T7, UniProt Q9BUL5 (Homo sapiens, UniProt Q9BUL5)
T7 construct: 200 μL of lysate containing 5 mg/ml proteome was treated with 2 μL of 100× compound stock; endogenous in cells
Source text: as §1

[8] = 100 uM, read-out: percent inhibition
[9] = 500 uM, read-out: percent inhibition
[10] = 100 uM, read-out: KB02_100 uM_percent_inhibition
[11] = 100 uM, read-out: KB05_100 uM_percent_inhibition
[12] = 500 uM, read-out: KB05_500 uM_percent_inhibition

T7 sequence (Q9BUL5 whole entry, change not shown): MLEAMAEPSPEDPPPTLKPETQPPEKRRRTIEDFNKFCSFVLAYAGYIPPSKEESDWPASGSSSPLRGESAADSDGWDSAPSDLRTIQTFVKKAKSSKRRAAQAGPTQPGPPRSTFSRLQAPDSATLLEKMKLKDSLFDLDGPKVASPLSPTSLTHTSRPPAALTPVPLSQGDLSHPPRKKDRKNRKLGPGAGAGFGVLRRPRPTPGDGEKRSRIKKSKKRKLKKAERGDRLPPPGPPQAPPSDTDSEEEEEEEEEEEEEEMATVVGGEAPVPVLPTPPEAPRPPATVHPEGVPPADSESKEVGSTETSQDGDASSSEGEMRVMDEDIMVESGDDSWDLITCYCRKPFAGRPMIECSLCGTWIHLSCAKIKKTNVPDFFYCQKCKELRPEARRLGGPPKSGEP

COc1ccc2c(c1)CCCN2C(=O)CCl [KB02]
inhibition at 100 µM [1]: 35%
inhibition at 500 µM [2]: 38%
inhibition at 100 µM [3, 8]: 2%
inhibition at 500 µM [3, 9]: 37%
inhibition at 100 µM [4, 10]: 19%
KB02_500 uM_percent_inhibition ([4]; 500 uM): 57%
inhibition at 500 µM ([4]; 500 uM, read-out: KB02_500 uM_percent_inhibition): 52%
inhibition at 100 µM ([5]; 100 uM): 5%
inhibition at 500 µM ([5]; 500 uM): 8%
percent inhibition ([6]; 100 uM): 31%
inhibition at 100 µM [6, 8]: 29%
inhibition at 100 µM [7, 10]: 13%

C=CC(=O)N(c1ccccc1)c1ccc(Br)cc1 [KB05]
inhibition at 100 µM [1]: 59%
inhibition at 500 µM [2]: 56%
inhibition at 500 µM [3, 9]: 23%
inhibition at 100 µM [4, 11]: 14%
KB05_500 uM_percent_inhibition ([4]; 500 uM): 50%
inhibition at 500 µM [4, 12]: 58%
inhibition at 100 µM ([5]; 100 uM): 4%
inhibition at 500 µM ([5]; 500 uM): 30%
inhibition at 100 µM [6, 8]: 10%
percent inhibition ([6]; 500 uM): 40%
inhibition at 500 µM [6, 9]: 31%
inhibition at 100 µM [7, 11]: 29%
KB05_500 uM_percent_inhibition ([7]; 500 uM): 30%
inhibition at 500 µM [7, 12]: 27%

O=C(CCl)Nc1cc(C(F)(F)F)cc(C(F)(F)F)c1 [KBO3]
percent_inhibition ([1]; 100 uM): 83%
percent_inhibition ([2]; 500 uM): 35%
percent inhibition ([3]; 500 uM): 16%
KB03_100 uM_percent_inhibition ([4]; 100 uM): 6%
percent_inhibition ([5]; 100 uM): 25%
percent_inhibition ([5]; 500 uM): 52%
percent inhibition ([6]; 100 uM): 8%
KB03_100 uM_percent_inhibition ([7]; 100 uM): 16%
